Laboratory results as given in patent US20140377189A1, “PULMONARY ADMINISTRATION OF ROTIGOTINE” (MAP Pharmaceuticals, Inc., priority 2013, published 2014).

Assay: In situ rotigotine salt screening (precipitate formation in ethanol/HFA 227 solution formulation)
Type: physicochemical
Conditions: 10% (w/w) ethanol in HFA 227; for Observation 1 week at 5° C. / Observation Immediate / Observation 1 week at RT: 1 mg/mL rotigotine free base with acid; for Observation 1 week at 5° C.: another week at 5° C. after 1 week at RT; for Observation Immediate: immediately upon preparation; for Observation 1 week at RT: stored 1 week at room temperature
Description: Rotigotine, bulk drug substance, was purchased from Chemagis (Perrigo API). A stock solution of rotigotine was prepared by dissolving rotigotine particles in ethanol at 10 mg/mL. With 1.5 mL rotigotine stock solution added to formulation bottles, each formulation bottle contained 15 mg rotigotine. For preparation of acid stock solutions, it was assumed that complete reaction or ion-pairing between rotigotine and acid. Based on the molecular weight and number of anions of each acid as listed in Table 1, acids stock solutions were prepared by dissolving the required amount in ethanol.
Each formulation bottle was filed with 1.5 mL of rotigotine stock solution and 1.0 ml, of acid stock solution. The formulation bottles (PET bottles) were then sealed with continuous valves and vortexed for 30 seconds to mix the solution well. Finally, 17.6 g of 1,1,1,2,3,3,3-heptafluoropropane (HFA227 (Mexichem)) to make a final volume of 15 mL of rotigotine formulation. All the bottles were hand shaken for 10 seconds.
All in situ salt screening samples were made as 1 mg/mL of rotigtine free base in 10% (w/w) ethanol in HFA 227. Acids corresponding to the salt forms in Table 1 were added according to the molar ratio with rotigotine for complete reaction. As 1 mg/mL was the minimal required dose at the time of experiment, all formulations were tested at this level to screen out non-solution salt formulations.
These were the rotigotine citrate, fumarate, succinate, sulfate, tartrate, xinafoate salt formulations. […] rotigotine salt formulations were immediately ruled out as the precipitate formation was not desired. All clear solution samples were stored at room temperature (RT) for 1 week. […] These were rotigotine acetate, benzoate and mesylate salt formulations. These 3 rotigotine salt formulations were also ruled out as precipitate formation is not desired. The rest of the samples remained as clear solutions (stable) at after another week at 5° C.
Out of the 7 acids that remained a clear solution after 1 week of storage, rotigotine maleate was selected as the lead candidate and suitable as a stable solution for oral pulmonary aerosol delivery.

Observation 1 week at 5° C. | Observation Immediate | Observation 1 week at RT | stayed in solution formulation at the minimum required concentration (minimum required concentration 1 mg/mL) | Compound
solution | solution | solution | – | rotigotine propionate
– | solution | red precipitate | – | Benzoate
solution | solution | solution | – | CC(O)C(=O)O.CCCN(CCc1cccs1)[C@H]1CCc2c(O)cccc2C1 [Lactate, rotigotine lactate]
solution | solution | solution | – | rotigotine pamoate
solution | solution | solution | – | rotigotine stearate
solution | solution | solution | – | rotigotine palmitate
– | white precipitate | – | – | rotigotine citrate
– | white precipitate | – | – | O=S(=O)(O)O [Sulfate]
– | white precipitate | – | – | Tartrate
– | white precipitate | – | – | Fumarate
solution | solution | solution | – | rotigotine glycolate
solution | solution | solution | stayed in solution | rotigotine maleate
– | solution | red precipitate | – | CC(=O)O.CCCN(CCc1cccs1)[C@H]1CCc2c(O)cccc2C1 [Acetate, rotigotine acetate]
